We go through two compounds from patent publication US9505834B2, “Methods for controlling the galactosylation profile of recombinantly-expressed proteins” (AbbVie Inc., priority 2011, dated 2016).

The subject of experiment [1] is adalimumab-producing CHO cell line. Nature of the experiment: Example 2 oligosaccharide analysis, HyClone CDM4CHO, batch shake flasks. In kind it is cell-based, Chinese Hamster. How it is done: (§1) For all studies with CHO cell lines described throughout this invention, samples were collected daily and measured for cell density and viability using a Cedex cell counter. Retention samples for titer analysis via Poros A method were collected by centrifugation at 12,000 RPM for 5 min when the culture viability began declining. The cultures were harvested by collecting 125 mL aliquots and centrifuging at 3,000 RPM for 30 min when culture viability was near or below 50%. All supernatants were stored at −80° C. until analysis.
(§2) For all studies, the harvest samples were Protein A purified and prepared for the oligosaccharide assay using the following procedures. As a first step in the process of establishing the identity and quantifying the oligosaccharides, they are released from the protein by enzymatic digestion with N-glycanase. Once the glycans are released, the free reducing end of each glycan is labeled by reductive amination with a fluorescent tag, 2-aminobenzamide (2-AB). The resulting labeled glycans are separated by normal-phase HPLC (NP-HPLC) in acetonitrile: 50 mM ammonium formate, pH 4.4, and detected by a fluorescence detector. Quantitation is based on the relative area percent of detected sugars. Throughout this invention, the relative area percentages of the agalactosyl fucosylated biantennary oligosaccharides, denoted as NGA2F+NGA2F-GlcNAc sum, and the galactose-containing fucosylated biantennary oligosaccharides NA1F+NA2F sum are reported and discussed.
Growth and production media for the adalimumab-producing CHO cell line were prepared using Thermo Scientific HyClone chemically defined media CDM4CHO without L-glutamine (Catalogue #SH30558.02). […] All media were filtered through Corning 0.5 L or 1 L (0.22 μm PES) filter systems and stored at 4° C. until use.
Upon thaw, cells were adapted to and expanded in HyClone CDM4CHO media for 5 (2 to 3 day each) passages in a combination of 250 mL, 500 mL, and 1000 mL Corning vented non-baffled shake flasks. Production cultures were initiated in duplicate 500 mL Corning vented non-baffled shake flasks (200 mL working volume) at an initial VCD of approximately 0.5×10^6 cells/mL. Cultures were maintained on orbital shakers at 110 RPM in a dry incubator at 35° C. and 5% CO2. A glucose solution (1.25% (v/v) of 40% solution) was fed when the media glucose concentration fell below 3 g/L. […]

The test system of experiment [2] is CHO cell line producing mAb #1. Nature of the experiment: Example 7 culture growth & productivity. In kind it is cell-based, Chinese Hamster. The protocol:
as §1
Growth and production media for the CHO cell line producing mAb #1 were prepared using a proprietary Life Technologies Gibco chemically defined media, GIA-1. […] All media were filtered through Corning 0.5 L or 1 L filter systems (0.22 μm PES) and stored at 4° C. until use.
Upon thaw, cells were expanded for 6 (3 day each) passages in a combination of 250 mL, 500 mL, and 1000 mL Corning vented non-baffled shake flasks. Production cultures were initiated in duplicate 500 mL Corning vented non-baffled shake flasks (200 mL working volume) at an initial VCD of approximately 0.5×10^6 cells/mL. Cultures were maintained on orbital shakers at 125 RPM in a dry incubator at 35° C. and 5% CO2. A glucose solution (1.25% (v/v) of 40% solution) was fed when the media glucose concentration fell below 3 g/L. […]

The subject of experiment [3] is adalimumab-producing CHO cell line. Nature of the experiment: Example 1 culture growth & productivity, batch shake flasks. In kind it is cell-based, Chinese Hamster. The settings on record: galactose 0 to 100 mM and/or manganese chloride up to 80 μM. The protocol:
All supernatants were stored at −80° C. until analysis. […] Culture growth, productivity, and product quality data for control cultures is the average of the 3 experiments.

The test system of experiment [4] is adalimumab-producing NSO cell line. The experiment in a line: Example 6 oligosaccharide analysis, CDM PFBM-3/PFFM-4, fed-batch shake flasks. It is filed as cell-based.
From the text: as §2
Growth and production media for the adalimumab-producing NSO cell line were prepared using a proprietary Life Technologies Gibco chemically defined media, PFBM-3 basal medium plus PFFM-4 feed medium.
Upon thaw, cells were expanded for 3 to 5 (2 days each) passages in a combination of 250 mL, 500 mL, 1 L, 2 L and 3 L Corning vented non-baffled shake flasks. Production cultures were initiated in single 1 L Corning vented non-baffled shake flasks (240 mL initial working volume) at an initial VCD of approximately 2.5×10^5 cells/mL. Cultures were maintained on orbital shakers at 100 RPM in a dry incubator at 37° C. and 5% CO2. The shake flask study was run in a fed-batch mode and the culture was fed PFFM-4 as follows: 24 mL—day 2, 28.8 mL—day 4, 28.8 mL—day 6, and 28.8 mL—day 8.
Samples were collected every 2 days and measured for cell density and viability using a Cedex cell counter. Retention samples for titer analysis via Poros A method were collected daily beginning on Day 8 by centrifugation at 2,000 g for 10 min and then filtered through 0.2 μm PVDF syringe filter. The cultures were harvested on production day 10. The entire culture was collected, chilled on ice to approximately 0° C. for 1.5 hours, the cells and debris flocculated at pH 5.0 by the addition of 1M citric acid and held for 15 minutes, and centrifuged at 4000x g for 15 min at 5° C. The supernatant was passed through 0.20 μm Millipore Stericup PES filters, and, immediately post filtration, the acidified clarified cell-free harvest was neutralized with 2M Tris to pH 7.1±0.2. The cell free harvest was transferred to PETG bottles and stored at −80° C. until analysis.
Galactose was supplemented at the following levels in both production and feed media: 0, 1, 4, 5, and 10 mM.

Experiment [5] has as its system adalimumab-producing CHO cell line #2. Nature of the experiment: Example 4 culture growth & productivity. In kind it is cell-based, Chinese Hamster. The conditions noted are these: galactose 0 to 20 mM and/or manganese chloride 0 to 40 μM. How it is done: as §1
Growth and production media for the adalimumab-producing CHO cell line #2 were prepared using a proprietary Life Technologies Gibco chemically defined media, GIA-1. […] All media were filtered through Corning 0.5 L or 1 L filter systems (0.22 μm PES) and stored at 4° C. until use.
Upon thaw, cells were expanded for 5 to 8 (2 to 3 day each) passages in a combination of 250 mL, 500 mL, and 1000 mL Corning vented non-baffled shake flasks. Production cultures were initiated in duplicate 500 mL Corning vented non-baffled shake flasks (200 mL working volume) at an initial VCD of approximately 0.5×10^6 cells/mL. Cultures were maintained on orbital shakers at 180 RPM in a dry incubator at 35° C. and 5% CO2. A glucose solution (1.25% (v/v) of 40% solution) was fed when the media glucose concentration fell below 3 g/L. […]

The mark [6] stands for this setting: manganese chloride alone, range 0 to 40 μM.
The mark [7] stands for this setting: 0.5 μM manganese chloride alone.

Regarding `O=C[C@H](O)[C@@H](O)[C@@H](O)[C@H](O)CO` [galactose, D(+)Galactose], the “decrease in the NGA2F+NGA2F-GlcNac sum” value is listed as 6% in experiment [1] (40 mM galactose alone) and 2% in experiment [4] (4 mM galactose alone). The “increase in the NA1F+NA2F sum” value in experiment [1] (galactose alone up to 40 mM) worked out at 6%; in experiment [4] (10 mM galactose alone) it was 15%. The “maximum decrease in the NGA2F+NGA2F-GlcNac sum” value (shortened to “maximum decrease”) was determined as 6% in experiment [1] (galactose alone up to 40 mM) and 14% in experiment [4] (10 mM galactose alone). Moreover, in experiment [2] (galactose alone), the culture growth result is given as “grew to a lower maximum VCD compared to the control”. Also, in experiment [3], the “cell growth and viability profiles” value was “comparable to control cultures”. The “culture growth, viability profiles, and harvest titer” value in experiment [5] is on record as “comparable to the control cultures”.

In the case of “Manganese (II) Chloride [manganese chloride]”, the “decrease in the NGA2F+NGA2F-GlcNac sum” value in experiment [1] (40 μM manganese chloride alone) was 5%. Also, in experiment [1] (setting [6]), the “maximum decrease” value was 5% and the “maximum increase in the NA1F+NA2F sum” value is 4%. Also, the culture growth result in experiment [2] (manganese chloride alone 0 to 20 μM) is on record as “grew comparable to the control cultures”. In experiment [3], the “cell growth and viability profiles” value is on record as “comparable to control cultures”. Further, in experiment [4] (0.2 μM manganese chloride alone), the “decrease in the NGA2F+NGA2F-GlcNac sum” value was found to be 12%. In addition, in experiment [4] (setting [7]), the “increase in the NA1F+NA2F sum” value is 20% and the “maximum decrease” value was 18%. Further, the “culture growth, viability profiles, and harvest titer” value in experiment [5] was “comparable to the control cultures”.
